# Patent US12038445B2, “Liver disease-related biomarkers and methods of use thereof” (Human Metabolomics Institute, Inc., priority 2016, dated 2024)
# “Also recorded” adds a separate entry of the source.
# How the values were obtained:
# WRL-68 [1] = assay: Cell proliferation after BA treatment, WRL-68; assay type: cell-based, human; conditions: BA treatment 14 days in high glucose (27.5 mM) and oleic acid (0.3 mM)
# Experimental: (§1) Normal human hepatic cell lines WRL-68 and THLE-2 were purchased from Sigma. For BA treatment, cells were harvested, rinsed twice in PBS, resuspended in sugar-free DMEM (Life Technologies) supplemented with 10% charcoal-stripped FBS and seeded into 6-well plate at a density of 5×10^4/well. […] After 14 days treatment, normal medium (DMEM-F12 containing 10% FBS) were added into each well to replace the spent media. Cell proliferation and anchorage-independent growth assays were performed in the normal medium. Additionally, western blot assay was performed to analyze the alteration of oncoprotein c-myc expression.
# THLE-2 = assay: Cell proliferation after BA treatment, THLE-2; assay type: cell-based, human; conditions: BA treatment 14 days in high glucose (27.5 mM) and oleic acid (0.3 mM)
# Experimental: as §1
# HepG2 = assay: Cell proliferation after BA treatment, HepG2; assay type: cell-based, human; conditions: BA treatment 14 days, 100 μM
# Experimental: (§2) Human cancer cell line, HepG2, was purchased from Sigma and maintained in DMEM-F12 (Life Technologies) supplemented with 10% fetal bovine serum (FBS, Life Technologies). For BA treatment, cells were harvested, rinsed twice with PBS, seeded in sugar-free DMEM (Life Technologies) supplemented with 10% charcoal-stripped FBS and 6 mM glucose. […] The spent media was replaced by fresh normal medium (DMEM-F12 containing 10% FBS) 14 days later. And then cells were used for cell proliferation assay and western blot analysis for the tumor suppressor protein CEBPa.
# WRL-68 [2] = assay: Anchorage-independent growth assay, WRL-68; assay type: cell-based, human; conditions: BA treatment under high glucose and high fat condition
# Experimental: as §1, with “5×10^4/well. We set the glucose (Glc, Sigma) at 27.5 mM and Oleic acid (OA, Sigma) at 0.3 mM to mimic high glucose and fat conditions in vitro.” for “5×10^4/well.”
# c-myc = assay: Western blot of oncoprotein c-myc in WRL-68 cells; assay type: cell-based, human
# Experimental: as §1, with “5×10^4/well. We set the glucose (Glc, Sigma) at 27.5 mM and Oleic acid (OA, Sigma) at 0.3 mM to mimic high glucose and fat conditions in vitro.” for “5×10^4/well.”
# (§3) Primary antibodies for c-myc (Santa Cruz), CEBPa (Santa Cruz) and Actin (Li-cor) were purchased and used with a diluted concentration as indicated by the manufacturers.
# CEBPα = assay: Western blot of tumor suppressor protein CEBPα in HepG2 cells; assay type: cell-based, human
# Experimental: as §2, §3
# [3] = Male mice treated with STZ alone; assay type: in vivo; conditions: male mice treated with STZ alone for 20 weeks
Structure (SMILES),WRL-68 proliferation (WRL-68 [1]),THLE-2 proliferation (THLE-2),HepG2 cell proliferation (HepG2),anchorage-independent growth of WRL-68 compared to those treated with high glucose and high fat (WRL-68 [2]),anchorage-independent growth of WRL-68 compared with parental cells (WRL-68 [2]),expression of oncoprotein c-myc (c-myc),expression of tumor suppressor gene CEBPα (CEBPα),HCC formation [3]
"C[C@H](CCC(=O)O)[C@H]1CC[C@H]2[C@@H]3CC[C@@H]4C[C@H](O)CC[C@]4(C)[C@H]3C[C@H](O)[C@]12C [DCA, deoxycholic acid]",significantly promoted,significantly promoted,significantly promoted,significantly increased,didn't enhance,increased,,
"C[C@H](CCC(=O)O)[C@H]1CC[C@H]2[C@@H]3[C@H](O)C[C@@H]4C[C@H](O)CC[C@]4(C)[C@H]3C[C@H](O)[C@]12C [CA, cholic acid]",significantly promoted,significantly promoted,significantly promoted,,,,,
"C[C@H](CCC(=O)NCCS(=O)(=O)O)[C@H]1CC[C@H]2[C@@H]3[C@H](O)C[C@@H]4C[C@H](O)CC[C@]4(C)[C@H]3CC[C@]12C [TCDCA, taurochenodeoxycholic acid]",significantly promoted,significantly promoted,significantly promoted; also recorded: markedly increased,,,increased,reduced,
"CC(CCC(=O)NCC(=O)O)C1CCC2C3C(O)CC4CC(O)CCC4(C)C3CCC12C (centres unmarked) [GCDCA, glycochenodeoxycholic acid]",very little influence,,,,,,,
"CN(N=O)C(=O)N[C@H]1C(O)O[C@H](CO)[C@@H](O)[C@@H]1O (mixture of isomers) [STZ, streptozotocin]",,,,,,,,no HCC was observed
"C[C@H](CCC(=O)NCCS(=O)(=O)O)[C@H]1CC[C@H]2[C@@H]3[C@H](O)C[C@@H]4C[C@H](O)CC[C@]4(C)[C@H]3C[C@H](O)[C@]12C [TCA, taurocholic acid]",very little influence,,,,,,,
